The values that follow come from patent US20240140951A1, “IMIDAZOPYRIDAZINE DERIVATIVES AS IL-17 MODULATORS” (UCB Biopharma SRL, priority 2020, published 2024).

Each structure is given as a SMILES string.

This assay concerns the target T1, IL-17A (Homo sapiens, UniProt Q16552).
T1 sequence (Q16552 24-155): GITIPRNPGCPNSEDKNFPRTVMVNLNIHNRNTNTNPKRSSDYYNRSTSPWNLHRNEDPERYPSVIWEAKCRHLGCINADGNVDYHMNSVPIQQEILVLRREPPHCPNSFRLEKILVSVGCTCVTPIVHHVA
Briefly: Inhibition of IL-17A induced IL-6 release from dermal fibroblast cell line (HDF cell line assay). Format: cell-based. The note with it: HDF cells stimulated with IL-17A 50 pM + TNF-α 25 pM; IL-6 release measured by HTRF. An excerpt:
Inhibition of IL-17A Induced IL-6 Release from Dermal Fibroblast Cell Line
The purpose of this assay is to test the neutralising ability to IL-17 proteins, in a human primary cell system. Stimulation of normal human dermal fibroblasts (HDF) with IL-17 alone produces only a very weak signal but in combination with certain other cytokines, such as TNFα, a synergistic effect can be seen in the production of inflammatory cytokines, i.e. IL-6.
HDFs were stimulated with IL-17A (50 pM) in combination with TNF-α (25 pM). The resultant IL-6 response was then measured using a homogenous time-resolved FRET kit from Cisbio. The kit utilises two monoclonal antibodies, one labelled with Eu-Cryptate (Donor) and the second with d2 or XL665 (Acceptor). The intensity of the signal is proportional to the concentration of IL-6 present in the sample (Ratio is calculated by 665/620×104).
The ability of a compound to inhibit IL-17 induced IL-6 release from human dermal fibroblasts is measured in this assay.
HDF cells (Sigma #106-05n) were cultured in complete media (DMEM+10% FCS+2 mM L-glutamine) and maintained in a tissue culture flask using standard techniques. Cells were harvested from the tissue culture flask on the morning of the assay using TrypLE (Invitrogen #12605036). The TrypLE was neutralised using complete medium (45 mL) and the cells were centrifuged at 300×g for 3 minutes. The cells were re-suspended in complete media (5 mL) counted and adjusted to a concentration of 3.125×10^4 cells/mL before being added to the 384 well assay plate (Corning #3701) at 40 μL per well. The cells were left for a minimum of three hours, at 37° C./5% CO2, to adhere to the plate.
Compounds were serially diluted in DMSO before receiving an aqueous dilution into a 384 well dilution plate (Greiner #781281), where 5 μL from the titration plate was transferred to 45 μL of complete media and mixed to give a solution containing 10% DMSO.
Mixtures of TNFα and IL-17 cytokine were prepared in complete media to final concentrations of TNFα 25 pM/IL-17A 50 pM, then 30 μL of the solution was added to a 384 well reagent plate (Greiner #781281).
L from the aqueous dilution plate was transferred to the reagent plate containing 30 μL of the diluted cytokines, to give a 2.5% DMSO solution. The compounds were incubated with the cytokine mixtures for 5 h at 37° C. After the incubation, 10 μL was transferred to the assay plate, to give a 0.5% DMSO solution, then incubated for 18-20 h at 37° C./5% CO2.
From the Cisbio IL-6 FRET kit (Cisbio #62IL6PEB) europium cryptate and Alexa 665 were diluted in reconstitution buffer and mixed 1:1, as per kit insert. To a white low volume 384 well plate (Greiner #784075) were added FRET reagents (10 μL), then supernatant (10 μL) was transferred from the assay plate to Greiner reagent plate. The mixture was incubated at room temperature for 3 h with gentle shaking (<400 rpm) before being read on a Synergy Neo 2 plate reader (Excitation: 330 nm; Emission: […]).
On the technique in general: In TR-FRET formats the signal depends on donor and acceptor labels being close together.
In general, IC50 refers to the concentration that inhibits the measured activity by half. As to `Cc1nonc1C(=O)N[C@H](c1cn2ncc(C(CC(F)F)c3nnc4ccc(F)cn34)cc2n1)C1CCC(F)(F)CC1` (single isomer, unassigned) [Example 12], the IC50 was 31.6 nM.

On to `Cc1nonc1C(=O)N[C@H](c1cn2ncc(C3CN(C4COC4)CC3C(=O)N3CC(F)(F)C(F)(F)C3)cc2n1)C1CCC(F)(F)CC1` (single isomer, unassigned) [Example 13], for which the IC50 was 25.1 nM.

As to `Cc1nonc1C(=O)N[C@H](c1cn2ncc(C(CC(F)F)c3nnnn3CC(F)(F)F)cc2n1)C1CCC(F)(F)CC1` (single isomer, unassigned) [Example 15, N-[(S)-(4,4-Difluorocyclohexyl)(7-{(1S*)-3,3-difluoro-1-[1-(2,2,2-trifluoroethyl)tetrazol-5-yl]propyl}imidazo[1,2-b]pyridazin-2-yl)methyl]-4-methyl-1,2,5-oxadiazole-3-carboxamide], the IC50 is 20 nM.

For the compound `Cc1nonc1C(=O)N[C@H](c1cn2ncc(C3CC(F)(F)CCN3C(=O)C34CC(F)(C3)C4)cc2n1)C1CCC(F)(F)CC1` (single isomer, unassigned) [Example 16], the IC50 is 25.1 nM.

Take `Cc1nonc1C(=O)N[C@H](c1cn2ncc(C(CC(F)F)C(=O)NCC(F)(F)F)cc2n1)C1CCC(F)(F)CC1` (stereo partly drawn) [Example 1, N-[(S)-(4,4-Difluorocyclohexyl){7-[3,3-difluoro-1-(2,2,2-trifluoroethylcarbamoyl)-propyl]imidazo[1,2-b]pyridazin-2-yl}methyl]-4-methyl-1,2,5-oxadiazole-3-carboxamide]: the IC50 is 39.8 nM. Turning to `CNC(=O)[C@H](NC(=O)C(CC(F)F)c1cnn2cc([C@@H](NC(=O)c3nonc3C)C3CCC(F)(F)CC3)nc2c1)C(C)C` (stereo partly drawn) [Example 2, N-{(S)-(4,4-difluorocyclohexyl)[7-(3,3-difluoro-1-{[(1R)-2-methyl-1-(methylcarbamoyl)-propyl]carbamoyl}propyl)imidazo[1,2-b]pyridazin-2-yl]methyl}-4-methyl-1,2,5-oxadiazole-3-carboxamide], the IC50 is 10 nM.

As to `CCc1nonc1C(=O)N[C@H](c1cn2ncc(C(CC(F)F)C(=O)NCC(F)(F)F)cc2n1)C1CCC(F)(F)CC1` (stereo partly drawn) [Example 5, N-[(S)-(4,4-Difluorocyclohexyl){7-[3,3-difluoro-1-(2,2,2-trifluoroethylcarbamoyl)-propyl]imidazo[1,2-b]pyridazin-2-yl}methyl]-4-ethyl-1,2,5-oxadiazole-3-carboxamide], the IC50 is 20 nM.

As to `CC(C)n1nccc1C(=O)N[C@H](c1cn2ncc(C(CC(F)F)C(=O)NCC(F)(F)F)cc2n1)C1CCC(F)(F)CC1` (stereo partly drawn) [Example 7, N-[(S)-(4,4-Difluorocyclohexyl){7-[3,3-difluoro-1-(2,2,2-trifluoroethylcarbamoyl)-propyl]imidazo[1,2-b]pyridazin-2-yl}methyl]-2-isopropylpyrazole-3-carboxamide], the IC50 was 25.1 nM.

In the case of `CC(C)n1ncnc1C(=O)N[C@H](c1cn2ncc(C(CC(F)F)C(=O)NCC(F)(F)F)cc2n1)C1CCC(F)(F)CC1` (stereo partly drawn) [Example 8, N-[(S)-(4,4-Difluorocyclohexyl){7-[3,3-difluoro-1-(2,2,2-trifluoroethylcarbamoyl)-propyl]imidazo[1,2-b]pyridazin-2-yl}methyl]-2-isopropyl-1,2,4-triazole-3-carboxamide], the IC50 is 158 nM. For the compound `Cc1nonc1C(=O)N[C@H](c1cn2ncc(C3(C(=O)NCC(F)(F)F)CCC(F)(F)CC3)cc2n1)C1CCC(F)(F)CC1` [Example 9, N-[(S)-(4,4-Difluorocyclohexyl){7-[4,4-difluoro-1-(2,2,2-trifluoroethylcarbamoyl)-cyclohexyl]imidazo[1,2-b]pyridazin-2-yl}methyl]-4-methyl-1,2,5-oxadiazole-3-carboxamide], the IC50 was 63.1 nM. For `Cc1nonc1C(=O)NC(c1cn2ncc(C(CC(F)F)C(=O)NCC(F)(F)F)cc2n1)C(C1CC1)C1CC1` (stereo not shown) [Example 11, N-(2,2-Dicyclopropyl-1-{7-[3,3-difluoro-1-(2,2,2-trifluoroethylcarbamoyl)propyl]-imidazo[1,2-b]pyridazin-2-yl}ethyl)-4-methyl-1,2,5-oxadiazole-3-carboxamide], the IC50 was 316 nM. The value for `Cc1nonc1C(=O)N[C@H](c1cn2ncc(C3(C(=O)NCC(C)(F)F)CCOCC3)cc2n1)C1CCC(F)(F)CC1` [Example 14, N-[(S)-(4,4-Difluorocyclohexyl){7-[4-(2,2-difluoropropylcarbamoyl)tetrahydropyran-4-yl]imidazo[1,2-b]pyridazin-2-yl}methyl]-4-methyl-1,2,5-oxadiazole-3-carboxamide] was 63.1 nM; that for `CC(F)(F)CNC(=O)C1(c2cnn3cc([C@@H](NC(=O)c4nonc4C4CC4)C4CCC(F)(F)CC4)nc3c2)CCOCC1` [Example 17, 4-Cyclopropyl-N-[(S)-(4,4-difluorocyclohexyl){7-[4-(2,2-difluoropropylcarbamoyl)-tetrahydropyran-4-yl]imidazo[1,2-b]pyridazin-2-yl}methyl]-1,2,5-oxadiazole-3-carboxamide] was 6.31 nM.
